Measurements taken from patent US8796268B2, “Heteroaryls and uses thereof” (Millennium Pharmaceuticals, Inc., priority 2010, dated 2014).

Assays:
Type in all cases: biochemical
Human VPS34 = target: T1, Human VPS34 (Homo sapiens, UniProt Q8NEB9); assay: Human VPS34 enzyme assay (Adapta Universal Kinase Assay); details: at a 1.0 μM concentration; read-out: VPS34 Percent Inhibition
T1 construct: GST (with thrombin site, pDEST20-Thrombin) (N); host or cells: SF9 insect cells (baculovirus)
Source text: The catalytic subunits of PI3Ks are cloned into either pDEST8(p110 alpha) or pDEST10(p110beta, p110delta, and p110gamma) as N-terminal His tagged fusion proteins using the Gateway system (Invitrogen, catalog#11804-010 for pDEST8 and 11806-015 for pDEST10). The sequences are verified before recombinant protein expression using the Baculovirus Expression System with Gateway® Technology. The accession numbers for the subunits are as follows: • p110 alpha (GB:U79143) • p110beta (GB: S67334) • p110delta (GB: U86453) • p110gamma (GB: X83368) • The regulatory subunits of PI3Ks are cloned into pDEST8 as un-tagged protein using the Gateway system (Catalog#11804-010). The sequences are verified before recombinant protein expression using the Baculovirus Expression System with Gateway® Technology. The accession numbers for the subunits are as following: • p85 alpha (GB: BC030815) • p101(GB: AB028925) • VPS34 (accession number GB:BC033004) is cloned into pDEST20—Thombin as N-terminal GST tagged fusion proteins using the Gateway system (Invitrogen, catalog#11804-013). The sequences are verified before recombinant protein expression using the Baculovirus Expression System with Gateway® Technology.
For expression VPS34 was infected at 1MOI in SF9 cells and harvested 72 hours post infection.
For purification, VPS34 is purified by Glutathione Sepharose 4 Fast Flow (GE Healthcare #17-5132-03) followed by HiTrap Q (GE Healthcare #17-1153-01).
3) VPS34 is assayed using Adapta™ Universal Kinase Assay Kit (Invitrogen).
4) Human VPS34 enzyme assay method
100 nL compounds in DMSO are added to wells of a 384 well microtitre plate (Greiner 780076). At room temperature: 5 ul VPS34 reaction buffer (Invitrogen Assay Buffer Q (diluted 1 in 5 with nanopure water) plus 2 mM DTT and 2 mM MnCl2) containing ATP (20 uM, Promega) and 200 uM PI—PS substrate (Invitrogen PV5122) is added followed immediately by 5 ul VPS34 reaction buffer (as above) containing VPS34 (5 nM, Millennium Protein Sciences Group) and the mixture is incubated with shaking at room temperature for 1 hour. Then 5 ul VPS34 stop-detect mix (as per Invitrogen Adapta Assay kit (PV5009) instructions (contains kinase quench buffer, TR-FRET buffer, Adapta Eu anti-ADP antibody and Alexa Fluor 647 ADP tracer)) is added to quench the reaction. The plates are then incubated for 30 minutes at room temperature with shaking and then read on a BMG PheraStar Plus reader.
For the assay methods described above, test compound percent inhibition, at various concentrations, is calculated relative to control (DMSO and EDTA) treated samples. Compound concentration versus percent inhibition curves are fitted to generate IC50 values. One skilled in the art will appreciate that the values generated either as percentage inhibition at a single concentration or IC50 values are subject to experimental variation.

Human PI3K alpha = target: T2, Human PI3K alpha (Homo sapiens, UniProt P42336); assay: Human PI3K alpha enzyme assay (HTRF); details: at a 1.1 μM concentration; read-out: PI3Kα Percent Inhibition
T2 construct: His (N); host or cells: SF9 insect cells (baculovirus)

Human PI3K delta = target: T3, Human PI3K delta (Homo sapiens, UniProt O00329); assay: Human PI3K delta enzyme assay (HTRF); details: at a 1.0 μM concentration; read-out: PI3Kδ Percent Inhibition
T3 construct: His (N); host or cells: SF9 insect cells (baculovirus)
Outline: (§1)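 Compounds were mixed with 25 uM ATP, then with 3.5 uM di-C8 PI(4,5)P2 and His-tagged PI3K isoform (β 5.25 nM, δ 0.75 nM, γ 5 nM) at pH 7.00. After 30 min at room temperature, EDTA stopped the reaction and PIP3 was measured by HTRF over 1 h.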

Human PI3K beta = target: T4, Human PI3K beta (Homo sapiens, UniProt P42338); assay: Human PI3K beta enzyme assay (HTRF); details: at a 1.1 μM concentration; read-out: PI3β Percent Inhibition
T4 construct: His (N); host or cells: SF9 insect cells (baculovirus)
Outline: as §1

Human PI3K gamma = target: T5, Human PI3K gamma (Homo sapiens, UniProt P48736); assay: Human PI3K gamma enzyme assay (HTRF); details: at a 1.0 μM concentration; read-out: PI3Kγ Percent Inhibition
T5 construct: His (N); host or cells: SF9 insect cells (baculovirus)
Outline: as §1

T4 sequence (P42338 whole entry): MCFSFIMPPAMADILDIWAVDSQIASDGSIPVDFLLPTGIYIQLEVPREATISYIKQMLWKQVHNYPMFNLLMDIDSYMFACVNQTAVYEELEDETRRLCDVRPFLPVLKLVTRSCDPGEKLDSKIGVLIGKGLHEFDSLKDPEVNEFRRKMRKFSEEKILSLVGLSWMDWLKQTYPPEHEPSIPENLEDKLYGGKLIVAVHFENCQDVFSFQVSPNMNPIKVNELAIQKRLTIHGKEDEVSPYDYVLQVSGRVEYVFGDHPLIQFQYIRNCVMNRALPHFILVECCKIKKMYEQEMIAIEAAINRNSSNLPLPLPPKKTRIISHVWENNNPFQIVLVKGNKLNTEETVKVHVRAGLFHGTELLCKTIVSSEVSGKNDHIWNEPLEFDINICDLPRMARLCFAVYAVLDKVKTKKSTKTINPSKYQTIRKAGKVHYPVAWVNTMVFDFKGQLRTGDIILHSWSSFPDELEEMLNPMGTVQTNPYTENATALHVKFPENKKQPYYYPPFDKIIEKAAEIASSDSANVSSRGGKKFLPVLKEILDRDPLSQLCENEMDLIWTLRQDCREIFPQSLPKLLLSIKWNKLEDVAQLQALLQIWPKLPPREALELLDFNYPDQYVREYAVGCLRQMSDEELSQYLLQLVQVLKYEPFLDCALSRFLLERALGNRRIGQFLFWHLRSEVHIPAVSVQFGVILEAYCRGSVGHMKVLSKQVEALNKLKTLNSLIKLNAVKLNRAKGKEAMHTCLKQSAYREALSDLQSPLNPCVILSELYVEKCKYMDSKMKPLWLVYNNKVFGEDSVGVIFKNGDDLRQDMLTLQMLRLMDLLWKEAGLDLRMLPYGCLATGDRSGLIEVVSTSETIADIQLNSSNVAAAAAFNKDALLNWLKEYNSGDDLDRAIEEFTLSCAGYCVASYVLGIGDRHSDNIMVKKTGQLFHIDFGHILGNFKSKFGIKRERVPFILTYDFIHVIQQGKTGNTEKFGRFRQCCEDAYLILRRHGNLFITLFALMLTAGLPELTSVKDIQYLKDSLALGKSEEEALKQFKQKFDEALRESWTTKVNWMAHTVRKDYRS
T4 sequence (P27986 whole entry partner): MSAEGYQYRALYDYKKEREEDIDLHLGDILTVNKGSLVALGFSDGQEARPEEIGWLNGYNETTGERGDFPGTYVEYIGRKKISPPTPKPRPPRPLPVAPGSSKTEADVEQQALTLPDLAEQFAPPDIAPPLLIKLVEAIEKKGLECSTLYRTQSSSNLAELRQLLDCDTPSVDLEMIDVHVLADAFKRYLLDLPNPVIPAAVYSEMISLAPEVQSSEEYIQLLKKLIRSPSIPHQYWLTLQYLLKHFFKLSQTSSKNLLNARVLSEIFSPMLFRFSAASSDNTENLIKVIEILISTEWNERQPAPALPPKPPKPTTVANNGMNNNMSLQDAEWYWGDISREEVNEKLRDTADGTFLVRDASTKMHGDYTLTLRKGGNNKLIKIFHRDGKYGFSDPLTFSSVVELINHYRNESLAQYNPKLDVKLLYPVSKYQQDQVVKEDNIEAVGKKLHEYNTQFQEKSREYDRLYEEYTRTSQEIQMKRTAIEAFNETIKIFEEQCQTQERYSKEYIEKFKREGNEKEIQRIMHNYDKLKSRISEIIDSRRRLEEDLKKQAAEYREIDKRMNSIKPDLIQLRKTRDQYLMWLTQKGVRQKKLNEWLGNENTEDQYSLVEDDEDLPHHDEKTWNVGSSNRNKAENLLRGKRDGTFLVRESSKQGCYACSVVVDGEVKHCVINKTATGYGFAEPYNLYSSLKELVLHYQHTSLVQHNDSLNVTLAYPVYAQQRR
T1 sequence (Q8NEB9 whole entry): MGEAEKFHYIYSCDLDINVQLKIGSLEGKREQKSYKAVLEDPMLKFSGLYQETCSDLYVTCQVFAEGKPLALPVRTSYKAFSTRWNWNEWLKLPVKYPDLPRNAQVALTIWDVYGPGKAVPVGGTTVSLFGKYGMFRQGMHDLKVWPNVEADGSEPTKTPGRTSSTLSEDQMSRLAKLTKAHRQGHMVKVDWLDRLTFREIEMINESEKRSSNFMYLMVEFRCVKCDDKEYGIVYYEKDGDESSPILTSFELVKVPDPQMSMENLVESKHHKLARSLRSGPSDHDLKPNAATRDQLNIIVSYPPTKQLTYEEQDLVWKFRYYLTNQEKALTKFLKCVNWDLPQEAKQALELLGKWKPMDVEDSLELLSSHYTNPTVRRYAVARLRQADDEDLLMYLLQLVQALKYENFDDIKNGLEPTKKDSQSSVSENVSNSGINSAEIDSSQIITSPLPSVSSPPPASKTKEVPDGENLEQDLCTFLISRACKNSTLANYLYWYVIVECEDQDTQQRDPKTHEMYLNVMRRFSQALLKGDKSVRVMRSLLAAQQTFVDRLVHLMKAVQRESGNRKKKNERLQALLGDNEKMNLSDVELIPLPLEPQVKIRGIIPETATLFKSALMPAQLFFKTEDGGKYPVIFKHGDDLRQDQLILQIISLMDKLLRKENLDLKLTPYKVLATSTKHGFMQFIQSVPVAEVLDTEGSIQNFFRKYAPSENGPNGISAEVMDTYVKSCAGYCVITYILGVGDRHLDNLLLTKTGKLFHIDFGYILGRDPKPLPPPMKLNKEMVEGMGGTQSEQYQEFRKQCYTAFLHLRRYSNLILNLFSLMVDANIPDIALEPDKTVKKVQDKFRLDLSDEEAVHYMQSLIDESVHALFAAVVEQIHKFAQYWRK
T2 sequence (P42336 whole entry): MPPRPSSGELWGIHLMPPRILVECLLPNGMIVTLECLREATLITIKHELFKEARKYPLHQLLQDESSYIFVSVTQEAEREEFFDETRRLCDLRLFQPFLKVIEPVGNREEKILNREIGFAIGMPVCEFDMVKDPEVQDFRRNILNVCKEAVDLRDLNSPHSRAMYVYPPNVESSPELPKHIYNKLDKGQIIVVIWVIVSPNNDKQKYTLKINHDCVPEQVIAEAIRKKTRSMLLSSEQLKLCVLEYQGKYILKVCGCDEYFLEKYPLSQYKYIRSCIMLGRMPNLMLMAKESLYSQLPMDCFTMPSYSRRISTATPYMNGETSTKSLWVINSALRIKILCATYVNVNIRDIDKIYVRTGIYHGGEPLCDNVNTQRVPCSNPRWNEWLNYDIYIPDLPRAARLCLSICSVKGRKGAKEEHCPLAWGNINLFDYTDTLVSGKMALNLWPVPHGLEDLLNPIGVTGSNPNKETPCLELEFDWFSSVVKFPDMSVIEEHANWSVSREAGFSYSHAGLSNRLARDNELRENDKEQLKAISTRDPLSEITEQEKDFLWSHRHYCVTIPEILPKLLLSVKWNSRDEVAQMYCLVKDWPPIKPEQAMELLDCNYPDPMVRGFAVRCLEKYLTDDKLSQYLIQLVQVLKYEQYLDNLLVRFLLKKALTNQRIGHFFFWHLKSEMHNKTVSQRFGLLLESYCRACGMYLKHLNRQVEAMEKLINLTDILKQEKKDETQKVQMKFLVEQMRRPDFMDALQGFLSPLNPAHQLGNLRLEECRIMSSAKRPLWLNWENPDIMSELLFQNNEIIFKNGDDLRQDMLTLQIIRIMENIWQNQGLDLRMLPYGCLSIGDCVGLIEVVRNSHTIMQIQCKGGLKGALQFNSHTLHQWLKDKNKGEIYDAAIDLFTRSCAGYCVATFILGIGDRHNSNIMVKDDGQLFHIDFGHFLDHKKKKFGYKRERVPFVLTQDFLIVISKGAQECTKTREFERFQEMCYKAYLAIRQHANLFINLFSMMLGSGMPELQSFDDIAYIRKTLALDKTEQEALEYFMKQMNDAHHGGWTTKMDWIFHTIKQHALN
T2 sequence (P27986 whole entry partner): as the sequence (P27986 whole entry partner) above
T3 sequence (O00329 whole entry): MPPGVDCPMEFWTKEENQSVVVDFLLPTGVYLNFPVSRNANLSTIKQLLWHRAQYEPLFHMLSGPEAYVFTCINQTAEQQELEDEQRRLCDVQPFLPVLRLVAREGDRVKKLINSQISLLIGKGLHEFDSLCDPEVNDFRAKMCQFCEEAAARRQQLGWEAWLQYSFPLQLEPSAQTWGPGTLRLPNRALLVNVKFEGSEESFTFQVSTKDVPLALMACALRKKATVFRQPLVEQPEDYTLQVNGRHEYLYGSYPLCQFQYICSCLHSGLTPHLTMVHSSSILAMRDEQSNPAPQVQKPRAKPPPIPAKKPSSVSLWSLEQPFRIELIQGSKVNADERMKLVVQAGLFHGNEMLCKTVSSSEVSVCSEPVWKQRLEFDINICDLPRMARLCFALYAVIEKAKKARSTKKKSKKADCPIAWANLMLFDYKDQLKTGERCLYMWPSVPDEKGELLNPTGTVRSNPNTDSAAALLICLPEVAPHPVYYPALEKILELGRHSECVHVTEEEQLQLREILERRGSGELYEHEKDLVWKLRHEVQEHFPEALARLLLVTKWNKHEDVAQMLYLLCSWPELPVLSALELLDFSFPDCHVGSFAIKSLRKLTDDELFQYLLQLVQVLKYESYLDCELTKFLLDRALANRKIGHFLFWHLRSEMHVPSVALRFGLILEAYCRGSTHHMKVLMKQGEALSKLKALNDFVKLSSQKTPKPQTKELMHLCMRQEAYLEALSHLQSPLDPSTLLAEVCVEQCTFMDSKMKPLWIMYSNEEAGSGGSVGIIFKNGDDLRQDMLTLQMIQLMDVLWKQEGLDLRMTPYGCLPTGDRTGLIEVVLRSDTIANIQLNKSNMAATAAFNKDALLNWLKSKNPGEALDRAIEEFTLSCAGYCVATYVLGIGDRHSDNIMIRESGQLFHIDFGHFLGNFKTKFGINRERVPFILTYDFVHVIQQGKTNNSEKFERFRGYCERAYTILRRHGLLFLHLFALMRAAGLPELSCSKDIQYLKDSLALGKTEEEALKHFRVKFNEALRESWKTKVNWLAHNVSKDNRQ
T3 sequence (P27986 whole entry partner): as the sequence (P27986 whole entry partner) above

SMILES: N#Cc1c(N2CCOCC2)sc(C(=O)O)c1Cc1ccc(Cl)cc1 [Compound 116]
- inhibition at 1 µM (Human VPS34): 54.2%
- inhibition at 1.1 µM (Human PI3K alpha): 46%
- inhibition at 1 µM (Human PI3K delta): 83%
- inhibition at 1.1 µM (Human PI3K beta): 98%
- inhibition at 1 µM (Human PI3K gamma): 36.7%

SMILES: COc1ccc(Cc2c(C(=O)O)sc(N3CCOCC3)c2C#N)c(Cl)c1 [Compound 117]
- inhibition at 1 µM (Human VPS34): 28.6%
- inhibition at 1.1 µM (Human PI3K alpha): 48%
- inhibition at 1 µM (Human PI3K delta): 78.5%
- inhibition at 1.1 µM (Human PI3K beta): 94%
- inhibition at 1 µM (Human PI3K gamma): 14.7%

SMILES: O=C(O)c1sc(N2CCOCC2)nc1Cc1ccc(Cl)c(F)c1 [Compound 118, 4-(4-chloro-3-fluorobenzyl)-2-morpholin-4-yl-1,3-thiazole-5-carboxylic acid]
- inhibition at 1 µM (Human VPS34): 68.2%
- inhibition at 1.1 µM (Human PI3K alpha): 28%
- inhibition at 1 µM (Human PI3K delta): 89.3%
- inhibition at 1.1 µM (Human PI3K beta): 104%
- inhibition at 1 µM (Human PI3K gamma): 27.5%

SMILES: O=C(O)c1sc(N2CCOCC2)nc1Cc1ccc(F)cc1 [Compound 119]
- inhibition at 1 µM (Human VPS34): 19.5%
- inhibition at 1.1 µM (Human PI3K alpha): 9%
- inhibition at 1 µM (Human PI3K delta): 62.6%
- inhibition at 1.1 µM (Human PI3K beta): 88%
- inhibition at 1 µM (Human PI3K gamma): 7.6%

SMILES: COc1ccc(Cc2nc(N3CCOCC3)sc2C(=O)O)c(Cl)c1 [Compound 120]
- inhibition at 1 µM (Human VPS34): 38.3%
- inhibition at 1.1 µM (Human PI3K alpha): 18%
- inhibition at 1 µM (Human PI3K delta): 77%
- inhibition at 1.1 µM (Human PI3K beta): 97%
- inhibition at 1 µM (Human PI3K gamma): 11%

SMILES: CC(c1ccc(Cl)cc1)c1nc(N2CCOCC2)sc1C(=O)O (centres unmarked) [Compound 121, 4-[1-(4-chlorophenyl)ethyl]-2-(morpholin-4-yl)-1,3-thiazole-5-carboxylic acid]
- inhibition at 1 µM (Human VPS34): 64.8%
- inhibition at 1.1 µM (Human PI3K alpha): 11%
- inhibition at 1 µM (Human PI3K delta): 77.3%
- inhibition at 1.1 µM (Human PI3K beta): 59%
- inhibition at 1 µM (Human PI3K gamma): 7.3%

SMILES: COc1cc(Cc2c(C(=O)O)sc(N3CCOCC3)c2C#N)ccc1Cl [Compound 122]
- inhibition at 1 µM (Human VPS34): 55.2%
- inhibition at 1.1 µM (Human PI3K alpha): 49%
- inhibition at 1 µM (Human PI3K delta): 96.2%
- inhibition at 1.1 µM (Human PI3K beta): 106%
- inhibition at 1 µM (Human PI3K gamma): 49.6%

SMILES: N#Cc1c(N2CCOCC2)sc(C(=O)O)c1Cc1ccc(Cl)cc1F [Compound 123]
- inhibition at 1 µM (Human VPS34): 45.1%
- inhibition at 1.1 µM (Human PI3K alpha): 64%
- inhibition at 1 µM (Human PI3K delta): 96.8%
- inhibition at 1.1 µM (Human PI3K beta): 105%
- inhibition at 1 µM (Human PI3K gamma): 36.6%

SMILES: N#Cc1c(N2CCOCC2)sc(C(=O)O)c1Cc1ccc(Cl)c(Cl)c1 [Compound 124]
- inhibition at 1 µM (Human VPS34): 78.8%
- inhibition at 1.1 µM (Human PI3K alpha): 79%
- inhibition at 1 µM (Human PI3K delta): 112%
- inhibition at 1.1 µM (Human PI3K beta): 109%
- inhibition at 1 µM (Human PI3K gamma): 74.2%

SMILES: COc1cc(Cl)ccc1Cc1c(C(=O)O)sc(N2CCOCC2)c1C#N [Compound 125]
- inhibition at 1 µM (Human VPS34): 37.1%
- inhibition at 1.1 µM (Human PI3K alpha): 46%
- inhibition at 1 µM (Human PI3K delta): 85.1%
- inhibition at 1.1 µM (Human PI3K beta): 99%
- inhibition at 1 µM (Human PI3K gamma): 25.9%

SMILES: N#Cc1c(N2CCOCC2)sc(C(=O)O)c1Cc1c(F)cc(Cl)cc1F [Compound 126]
- inhibition at 1 µM (Human VPS34): 44%
- inhibition at 1.1 µM (Human PI3K alpha): 42%
- inhibition at 1 µM (Human PI3K delta): 100%
- inhibition at 1.1 µM (Human PI3K beta): 103%
- inhibition at 1 µM (Human PI3K gamma): 37.6%

SMILES: COc1cc(Cc2c(C(=O)O)sc(N3CCOCC3)c2C#N)c(F)cc1Cl [Compound 127]
- inhibition at 1 µM (Human VPS34): 33.7%
- inhibition at 1.1 µM (Human PI3K alpha): 40%
- inhibition at 1 µM (Human PI3K delta): 100%
- inhibition at 1.1 µM (Human PI3K beta): 110%
- inhibition at 1 µM (Human PI3K gamma): 55%

SMILES: O=C(O)c1sc(N2CCOCC2)nc1Cc1ccc2cc(F)ccc2c1 [Compound 128]
- inhibition at 1 µM (Human VPS34): 88.1%
- inhibition at 1.1 µM (Human PI3K alpha): 46%
- inhibition at 1 µM (Human PI3K delta): 114%
- inhibition at 1.1 µM (Human PI3K beta): 106%
- inhibition at 1 µM (Human PI3K gamma): 63.4%
